“Also recorded” adds a separate entry of the source.
How the values were obtained:
[1] = tested on: NSCLC cell lines other than H460; experiment: Cytotoxicity in NSCLC tumor models, range over the cell lines other than H460; type: cell-based, human; settings: NSCLC cell lines other than H460, single agents
[2] = tested on: A549; experiment: Cytotoxicity in NSCLC tumor models; type: cell-based, human; settings: A549, p53 wt; N = 3
Source text: (§1) The cell lines include cell lines with wild-type p53, cell lines with mutant p53, and cell lines in which p53 has been knocked out (“null”). The properties of these cell lines are described in F. Bunz et al., “Requirement for p53 and p21 to Sustain G2 Arrest After DNA Damage,” Science 282: 1497-1501 (1998), incorporated herein by this reference.

[3] = tested on: H157; experiment: Cytotoxicity in NSCLC tumor models; type: cell-based, human; settings: H157, p53 mu; N = 3
Source text: as §1

[4] = tested on: H226; experiment: Cytotoxicity in NSCLC tumor models; type: cell-based, human; settings: H226, p53 wt; N = 3
Source text: as §1

[5] = tested on: H460; experiment: Cytotoxicity in NSCLC tumor models; type: cell-based, human; settings: H460, p53 wt; N = 3
Source text: as §1

[6] = tested on: H1299; experiment: Cytotoxicity in NSCLC tumor models; type: cell-based, human; settings: H1299, p53 null; N = 3
Source text: as §1

[7] = tested on: H1975; experiment: Cytotoxicity in NSCLC tumor models; type: cell-based, human; settings: H1975, p53 mu; N = 3
Source text: as §1

[8] = tested on: SkLU1; experiment: Cytotoxicity in NSCLC tumor models; type: cell-based, human; settings: SkLU1, p53 mu; N = 3
Source text: as §1

[9] = tested on: H2122; experiment: Cytotoxicity in NSCLC tumor models; type: cell-based, human; settings: H2122, p53 mu; N = 3
Source text: as §1

[10] = tested on: H838; experiment: Cytotoxicity in NSCLC tumor models; type: cell-based, human; settings: H838, p53 wt; N = 3
Source text: as §1

[11] = tested on: H1975 (TKI-resistant) human lung adenocarcinoma xenograft tumors; experiment: H1975 NSCLC xenograft tumor model in female Rag2 mice
Protocol: (§2) Rag2 mice bearing subcutaneous human lung adenocarcinoma xenograft tumors of either TKI-resistant (H1975) or TKI-sensitive (A549) origin were treated.
(§3) Two human NSCLC cell lines, A549 (TKI-sensitive) and H1975 (TKI-resistant), were used as xenograft tumor models in female Rag2 mice. The mice were 6 to 8 weeks of age and weighed 18-23 grams. 10 mice were used per group.
Rag2 mice bearing subcutaneous human lung adenocarcinoma xenograft tumors of either TKI-sensitive (A549) or TKI-resistant (H1975) origin were treated. […] Saline was used as control treatment. Disease progression was evaluated by tumor volume, clinical observations and body weight measurements. Blood samples were analyzed for CBC/differential analyses to assess myelosuppression or other changes in blood chemistry.
Cell number for inoculation was 5×10^6 cells for A549 cells in an injection volume of 50 μL per animal. For H1975 cells, cell number for inoculation was 2×10^6 cells in an injection volume of 50 μL per animal.
Treatment was initiated at average tumor volume of 100-150 mm^3.
Tumor growth delay (TGD) was calculated according to Equation (2): TGD=DTtx−DTcontrol (2).
For these calculations, TV is tumor volume, tx is treatment, int is initial, DT is doubling time for mean tumor volume from 200 mm^3 to 400 mm^3 for A549 or from 300 mm^3 to 600 mm^3 for H1975. MTV is mean tumor volume in mm^3 and TCR is tumor control ratio.
Disease progression was evaluated by tumor volume, clinical observations and body weight measurements.

[12] = tested on: A549 (TKI-sensitive) human lung adenocarcinoma xenograft tumors; experiment: A549 NSCLC xenograft tumor model in female Rag2 mice
Protocol: as §2, §3
Cisplatin was used in normal saline at a dose of 5 mg/kg. Administration was intravenous.
Administration was intraperitoneal.
Treatment was initiated at a tumor volume of 100 mm^3 to 150 mm^3.
The cells were started from a frozen vial of lab stock that were frozen down from the ATCC original vial and kept in liquid nitrogen. Cell cultures with a passage number of 3 to 10 and a confluence of 80%-90% were used. […] Cells were subcultured once weekly with a split ratio 1:3 to 1:8 and expanded.
For cell preparation and harvesting for subcutaneous (s.c.) inoculation, the cells were rinsed briefly once with Hanks Balanced Salt Solution without calcium or magnesium. […] The cells were allowed to sit at 37° C. for a few minutes. The cells were observed under an inverted microscope until the cell layer was dispersed, fresh medium was added, 50 μL of cell suspension was taken and mixed with trypan blue (1:1), and the cells were counted and cell viability assessed by using Cellometer Auto T4. The cells were centrifuged at 200×g for 7 minutes and the supernatant was aspirated. The cells were resuspended in growth medium to obtain a concentration of 100×10^6 cells/mL. For inoculation, 5×10^6 cells were used in an injection volume of 50 μL per mouse in 1:1 Matrigel.
On day 0, tumor cells were implanted subcutaneously into mice in a volume of 50 μL in Matrigel using a 28-gauge needle; injection of the tumor cells was in the back of the mice. Mice were randomly assigned to groups based on tumor volume.
For administration, 5 mL of 0.9% sodium chloride for injection, USP (saline) was added to yield a DAG solution with a concentration of 8 mg/mL.
Mice were injected with the required volume to administer the prescribed dose (mg/kg) to the animals based on individual mouse weights using a 28-gauge needle. The injection volume was 200 μL for a 20-g mouse. The mice were briefly (less than 30 seconds) restrained during intravenous injections. Dilation of the vein for intravenous injections was achieved by holding the animals under a heat lamp for a period of between 1-2 minutes.
Mice were individually weighed and injected intraperitoneally according to body weight at the specified injection concentration (see Table 1). The injection volume was based on 200 μL per 20-g mouse. The abdominal surface was wiped down with 70% isopropyl alcohol to clean the injection site.
Tumor growth was monitored by measuring tumor dimensions with calipers beginning on the first day of treatment. Tumor length and width measurements were obtained each Monday, Wednesday, and Friday. Tumor volumes were calculated according to the equation L×W^2/2 with the length (in mm) being defined as the longer axis of the tumor. Animals were weighed at the time of tumor measurement. Tumors were allowed to grow to a maximum of 800 mm^3 before termination.
All animals had blood collected by cardiac puncture at termination for CBC (complete blood count) with differentiation.
In particular, signs of ill-health were based on body weight loss, change in appetite, and behavioral signs such as altered gait, lethargy, and gross manifestations of stress.

[13] = tested on: RIF-1 cell-line; experiment: Standard syngeneic mouse fibrosarcoma model, tumor growth delay; type: in vivo; settings: 4 mg/kg, single IP injection, RIF-1 in C3H mice; for Tumor Delay: vs untreated
[14] = cited from earlier work
[15] = 5 mg/kg i.v. Q7D × 3, A549 model
[16] = group 2, 5 mg/kg Q7D×3 i.v., A549 model, days post-inoculation

Row | Compound | IC50 [1] [nM] | IC50 [2] [µM] | IC50 [3] [µM] | IC50 [4] [µM] | IC50 [5] [µM] | IC50 [6] [µM] | IC50 [7] [µM] | IC50 [8] [µM] | IC50 [9] [µM] | IC50 [10] [µM] | further results
1 | O=C1[O][Pt]2([NH][C@@H]3CCCC[C@H]3[NH]2)[O]C1=O [Oxaliplatin, oxaliplatin] | 600 to 2600 | 0.57 | 2.04 | 0.82 | 0.36 | 0.64 | 0.51 | 2.02 | 1.42 | 2.63 | 
2 | N.N.[Cl][Pt][Cl] [Cisplatin, cisplatin, reference compound] | 500 to 2200 | 0.74 | 2.16 | 1.82 | 0.45 | 1.2 | 0.45 | 0.89 | 1.07 | 1.18 | MTV at Day 31 ([11]; 5 mg/kg i.v. Q7D × 3): 381 mm^3; Median survival ([11]; 5 mg/kg i.v. Q7D × 3): 31 days; body weight ([11]; 5 mg/kg i.v. Q7D × 3 (group 2)): Body weight loss was observed; TCR at Day 31 ([11]; 5 mg/kg i.v. Q7D × 3, tumor control ratio): 0.83; MTV at Day 68 [12, 15]: 460 mm^3; Median survival [12, 15]: 72 days; TCR at Day 68 ([12]; 5 mg/kg i.v. Q7D × 3, A549 model, tumor control ratio): 0.72; TGD ([12]; 5 mg/kg i.v. Q7D × 3, A549 model, tumor growth delay vs untreated control, doubling time 200 to 400 mm^3): 4 days; TGI (%) ([12]; 5 mg/kg i.v. Q7D × 3, A549 model, tumor growth inhibition): 29%; body weight / tolerability of the dosage ([12]; 5 mg/kg i.v. Q7D × 3, A549 tumor-bearing Rag2 mice): body weight loss was observed; also recorded: near the MTD; number of animals remaining on study on day 70 ([12]; group 2, 5 mg/kg Q7D×3 i.v., A549 model): 6/10; day on which a mean tumor volume of 200 mm^3 was observed [12, 16]: 49 days; day on which a mean tumor volume of 400 mm^3 was reached [12, 16]: 66 days; doubling time ([12]; group 2, 5 mg/kg Q7D×3 i.v., A549 model, mean tumor volume 200 to 400 mm^3): 17; Days to 4 × Median Tumor Size [13]: 7.75 days; Tumor Delay [13]: 1.45 days; Tumor Delay ([13]; listed as cisplatin): 1.5 days
3 | O[C@H]([C@H](O)[C@@H](O)CBr)[C@H](O)CBr [dibromodulcitol] |  |  |  |  |  |  |  |  |  |  | absorption by the oral route [14]: rapid and fairly complete
